Results: ChEMBL document CHEMBL3137667, “[Drug-induced liver injury; fourteenth updated edition of the bibliographic database of liver injuries and related drugs]” (Gastroenterol Clin Biol, 2004)

Experiments:
[1] = human, serum, 4383 h
[2] = human
[3] = human, serum
[4] = human; remark: listed apart in the source
[5] = human, serum; remark: listed apart in the source
[6] = human; remark: listed apart in the source
[7] = Highest frequency of acute liver toxicity observed during clinical trials, expressed as a percentage. [column '% AIGUE' in source]; details: human
[8] = human; remark: listed apart in the source
[9] = human; remark: listed apart in the source
[10] = human; remark: listed apart in the source
[11] = human; remark: listed apart in the source
[12] = human; remark: listed apart in the source
[13] = human; remark: listed apart in the source
[14] = Highest frequency of moderate liver toxicity observed during clinical trials, expressed as a percentage. [column '% BIOL' in source]; details: human
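Throughout, for Hepatotoxicity (association with vascular disease): count of indexed literature references reporting vascular liver injury in humans, e.g. peliosis hepatitis, hepatic veno-occlusive disease or Budd-Chiari syndrome.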
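Throughout, for Hepatotoxicity (benign tumour): value is a count of indexed literature references citing a benign tumour confirmed by histopathology.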
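Throughout, for Hepatotoxicity (choleostasis): human cholestatic liver injury, shown by histopathology or by peak ALT or AST elevation over alkaline phosphatase ratio below 2, value counts indexed literature reports.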
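Throughout, for Hepatotoxicity (chronic liver disease): chronic liver injury confirmed by histopathology or persistently raised serum aminotransferase activity beyond 6 months, value given as the count of indexed literature references.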
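Throughout, for Hepatotoxicity (cirrhosis): value is a count of indexed literature references reporting cirrhosis confirmed by histopathology.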
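Throughout, for Hepatotoxicity (cytolytic): human cytolytic liver injury, shown by histopathology or by a ratio above 5 of peak ALT or AST elevation to alkaline phosphatase elevation, value counts indexed references.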
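Throughout, for Hepatotoxicity (granulomatous hepatitis): value is a count of indexed literature references reporting granulomatous liver disease confirmed by histopathology.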
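Throughout, for Hepatotoxicity (malignant tumour): malignant tumour confirmed by histopathology, value gives the count of indexed literature references reporting it.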
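Throughout, for Hepatotoxicity (severe hepatitis): human clinical data: severe hepatitis, meaning potentially life-threatening liver failure or clinically observed cases, the value counts how many indexed literature references report it.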
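Throughout, for Hepatotoxicity (steatosis): steatosis confirmed by histopathology, value is the count of indexed references.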

Compound	Hepatotoxicity (chronic liver disease) [1]	Hepatotoxicity (granulomatous hepatitis) [2]	Hepatotoxicity (moderate) [3]	Hepatotoxicity (malignant tumour) [4]	Hepatotoxicity (acute) [5]	Hepatotoxicity (association with vascular disease) [6]	Hepatotoxicity (acute) [7]	Hepatotoxicity (steatosis) [8]	Hepatotoxicity (cytolytic) [9]	Hepatotoxicity (severe hepatitis) [10]	Hepatotoxicity (cirrhosis) [11]	Hepatotoxicity (choleostasis) [12]	Hepatotoxicity (benign tumour) [13]	Hepatotoxicity (moderate) [14]	Hepatotoxicity (granulomatous hepatitis) ([2]; Liver)	Hepatotoxicity (acute) ([7]; Liver)	Hepatotoxicity (cytolytic) ([9]; Liver)	Hepatotoxicity (severe hepatitis) ([10]; Liver)	Hepatotoxicity (choleostasis) ([12]; Liver)	Hepatotoxicity (moderate) ([14]; Liver)
NCC1CC(=O)N(Cc2ccccc2)C1 (stereo not drawn) [NEBRACETAM]	0	0	1	0	0	0	0%	0	0	0	0	0	0	11.1%						
O=CN(O)CCCP(=O)(O)O [FOSMIDOMYCIN]	0	0	1	0	0	0	0%	0	0	0	0	0	0	7.7%						
CC[C@H]1OC(=O)[C@H](C)[C@@H](O[C@H]2C[C@@](C)(OC)[C@@H](O)[C@H](C)O2)[C@H](C)[C@@H](O[C@@H]2O[C@H](C)C[C@H](N(C)C)[C@H]2O)[C@](C)(O)C[C@@H](C)[C@@H]2N[C@@H](COCCOC)O[C@H]([C@H]2C)[C@]1(C)O [DIRITHROMYCIN]	0	0	3	0	0	0	0%	0	0	0	0	0	0	28.6%						
CCCC[C@@H]1CC(=O)[C@]2(O)O[C@@H]3[C@@H](NC)[C@@H](O)[C@@H](NC)[C@H](O)[C@H]3O[C@@H]2O1 [TROSPECTOMYCIN]	0	0	2	0	0	0	0%	0	0	0	0	0	0	33.3%						
CC(CN1c2ccccc2Sc2ccccc21)N(C)C (stereo not drawn) [PROMETHAZINE]	0	0	0	0	2	0	0%	0	0	0	0	0	0	0%						
CNC(=O)c1cccc2c(Nc3ccc(NS(C)(=O)=O)cc3OC)c3cccc(C)c3nc12 [ASULACRINE]	0	0	2	0	0	0	0%	0	0	0	0	0	0	17%						
OC(CCN1CCCCC1)(c1ccccc1)C1CCCCC1 (stereo not drawn) [TRIHEXYPHENIDYL]	0		0	0	1	0		0			0		0		0	0%	1	1	0	0%
CCN1CCC[C@H]1CNC(=O)c1c(OC)ccc(Br)c1OC [REMOXIPRIDE]	0	0	7	0	0	0	0%	0	0	0	0	0	0	6.4%						
CC#CCC(C)[C@H](O)/C=C/[C@@H]1[C@H]2c3cccc(CCCC(=O)O)c3O[C@H]2C[C@H]1O (stereo partly drawn) [BERAPROST]	0	0	1	0	0	0	0%	0	0	0	0	0	0	13%						
ADALIMUMAB	0	0	1	0	0	0	0%	0	0	0	0	0	0	12.1%						
COc1ccc(CCN(C)CCCOc2ccc(S(=O)(=O)c3c(C(C)C)cn4ccccc34)cc2)cc1OC [FANTOFARONE]	0	0	1	0	0	0	0%	0	0	0	0	0	0	2.7%						
NC(=O)OC[C@@H]1[C@H](NC(=O)/C(=N\OCC(=O)O)c2csc(N)n2)C(=O)N1S(=O)(=O)O [CARUMONAM]	0	0	24	0	0	0	0%	0	0	0	0	0	0	22%						
